Measurements as given in article PMC7615677 (Science translational medicine, 2023).
Where two headings read alike, the source gives them in different places.

Tests used:
[1] = In vivo pharmacokinetics; parameters: species or system female golden Syrian hamsters; details: for AUC(0-t): read-out: AUC0-24 (first dose); for AUC: read-out: AUC96-120 (last dose)
Description: (§1) Additional PK studies were also conducted by WuXi AppTec Co, Ltd (Shanghai, China) according to protocols reviewed and approved by DNDi. […] IV and oral formulations for rats, mice and hamsters were the same as described above. For dogs, the IV dose was administered in saline containing 2% DMSO and 3% Solutol HS-15 and the oral formulation was as described above. Blood was sampled up to 48 h post-dose into vials containing potassium EDTA as an anticoagulant, proteins were precipitated with acetonitrile and plasma was separated and assayed by LC-MS.
Single dose pharmacokinetic parameters (clearance, volume of distribution and half-life) were initially estimated using non-compartmental methods and oral bioavailability was calculated using the ratio of the dose corrected AUC after oral dosing relative to that after IV administration. […] Where a full concentration versus time profile was obtained from a single animal, parameters were estimated for each animal and mean and standard deviations calculated. In the case of mice where sparse sampling was used with multiple animals per time point, the data analysis was conducted using the mean profile.

[2] = target: T1, CYP2C9 (Homo sapiens, UniProt P11712); test: Cytochrome P450 inhibition, human liver microsomes; assay type: in vitro ADME
T1 construct: incubation of isoform-specific substrates with human liver microsomes; from tissue; host or cells: human liver microsomes
T1 sequence (P11712 whole entry, canonical isoform): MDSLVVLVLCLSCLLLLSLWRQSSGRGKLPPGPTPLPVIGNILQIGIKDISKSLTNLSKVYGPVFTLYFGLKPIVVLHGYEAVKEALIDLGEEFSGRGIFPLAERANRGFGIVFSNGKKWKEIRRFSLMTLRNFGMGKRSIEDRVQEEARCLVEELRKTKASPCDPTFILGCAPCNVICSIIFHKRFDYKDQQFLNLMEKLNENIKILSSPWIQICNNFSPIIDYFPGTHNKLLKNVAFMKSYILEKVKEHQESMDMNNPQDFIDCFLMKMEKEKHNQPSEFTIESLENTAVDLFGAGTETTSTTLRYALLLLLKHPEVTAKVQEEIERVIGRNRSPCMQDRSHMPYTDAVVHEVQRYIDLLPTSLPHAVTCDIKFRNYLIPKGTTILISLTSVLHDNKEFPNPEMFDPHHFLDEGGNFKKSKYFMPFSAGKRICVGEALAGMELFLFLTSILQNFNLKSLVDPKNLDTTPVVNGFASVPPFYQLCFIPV
Description: The formation of known metabolites mediated by a specific CYP isoform was monitored. CYP isoform-specific pathways (and positive control inhibitors) included CYP1A2: phenacetin O-deethylation (furafylline), CYP2B6: bupropion hydroxylation (PPP), CYP2C8: amodiaquine deethylation (quercetin) CYP2C9: tolbutamide methylhydroxylation (sulfaphenazole), CYP2C19: (S)-mephenytoin 4’-hydroxylation (ticlopidine), CYP2D6: dextromethorphan O-demethylation (quinidine), and CYP3A: midazolam 1’-hydroxylation and testosterone 6β-hydroxylation (ketoconazole). […] The organic solvent content was maintained at less than 1% (v/v). NADPH was added to initiate the reaction which was then quenched by the addition of acetonitrile containing internal standard at specified times. Concentrations of the isoform-specific metabolites were quantified by LC-MS (Waters Xevo TQD triple quadrupole MS coupled to a Waters Acquity UPLC system) relative to calibration standards prepared in pre-quenched microsomal matrix.
Time dependent inhibition was assessed using an “IC50 shift” method based on a previous publication ([44]). […] A shift in the IC50 in the presence of NADPH (relative to the absence) was used as an indication of time dependent inhibition. Reference direct and time-dependent inhibitors were included in the assays.

[3] = In vivo pharmacokinetics; parameters: species or system male Sprague Dawley rats; details: for Vd: read-out: Plasma Vss
Description: Single dose intravenous (IV) pharmacokinetic (PK) studies in male Sprague Dawley rats and IV and oral PK studies in female BALB/c mice were conducted at Monash University. […] Blood was sampled via a cannula implanted in the carotid artery (also on the day prior to dosing) at pre-determined time points up to 24 h post-dose. Samples were transferred to vials containing heparin as an anticoagulant, gently mixed and centrifuged, and plasma separated for subsequent quantitative analysis using LC-MS. […] A dose of 25 mg/kg prepared in an aqueous suspension vehicle containing 0.5% hydroxypropyl methylcellulose, 0.5% benzyl alcohol and 0.4% polysorbate 80 (0.2 mL per mouse) was also dosed via oral gavage. Mouse blood was sampled via submandibular bleed up to 24 h post-dose (n=2 mice per time point, n=3 samples per mouse) into vials containing heparin and plasma was separated for quantitative analysis as described above.
as §1
Single dose pharmacokinetic parameters (clearance, volume of distribution and half-life) were initially estimated using non-compartmental methods and oral bioavailability was calculated using the ratio of the dose corrected AUC after oral dosing relative to that after IV administration. Nominal doses were used in the calculations unless the measured dose differed by more than 15% from the nominal dose, in which case the measured dose was used. Where a full concentration versus time profile was obtained from a single animal, parameters were estimated for each animal and mean and standard deviations calculated. In the case of mice where sparse sampling was used with multiple animals per time point, the data analysis was conducted using the mean profile.

[4] = tested on: L. donovani; test: Leishmania intramacrophage in vitro assay; assay type: cell-based
Description: A drug incubation period of 96 h was applied, and cells were stained with Giemsa for microscopic evaluation of cellular amastigote burdens. Percentage reduction compared to the burden in the infected non-treated control wells was used as a measure for drug activity.
Alternatively, differentiated macrophage host cells derived from THP-1 (human leukemia monocytes) were infected at a multiplicity of infection of 1:2.5 (ratio of host cells to parasites) with L. donovani MHOM/IN/80/DD8 culture-maintained promastigotes. L. donovani MHOM/IN/80/DD8 (ATCC 50212) promastigote parasites and THP-1 (ATCC TIB202) cells were maintained as previously described ([20]). A drug incubation period of 96 h was applied, plates fixed with 4% paraformaldehyde and stained with SYBR® green and CellMask Deep Red™ (ThermoFisher Scientific). Images were acquired on an Opera high-content imaging system (PerkinElmer). Healthy host (THP-1) cells and intracellular amastigotes were identified using CellMask Deep Red cytoplasmic and SYBR green nuclear area and intensities, with intracellular parasites identified based on spot detection algorithms (size and intensity measurements used to define parasite nucleus) to determine the number of parasites present within THP-1 host cells. An infected cell was defined as a host cell containing >3 parasites within the cytoplasm boundary. Compound activity was determined based on the number of infected cells normalized to the positive (10μM DNDI-1044) and negative (0.4% DMSO) controls. Non-linear sigmoidal dose-response curves with no constraints were plotted, and IC50 was calculated. The IC50s were calculated from two independent experiments.

[5] = female, golden Syrian, hamster, plasma, hamsters, oral 12.5 mg/kg qd, 5 days
[6] = female, golden Syrian, hamster, plasma, hamsters, oral 25 mg/kg qd, 5 days
[7] = male, Sprague Dawley, plasma, Rat, oral 10 mg/kg
[8] = male, Sprague Dawley, rat, plasma, rats, single oral 50 mg/kg
[9] = male, Sprague Dawley, rat, plasma, rats, single oral 100 mg/kg
[10] = male, Sprague Dawley, rat, plasma, rats, single oral 300 mg/kg
[11] = L. donovani MHOM/ NP/2003/ BPK282/0-cl4
[12] = L. donovani MHOM/ET/2007/LLM-1600
[13] = L. donovani MHOM/NP/03/BPK275/0-cl18

In the case of `Cc1[nH]c2nc(N)nc(C)c2c1-c1ccc(C#N)c2c1OCO2` [DNDI-6174], the Cmax at 5 days [1, 5] is reported as 3530 ng/mL, the AUC(0-t) [1, 5] is reported as 22900 ng·h/mL and the AUC [1, 5] is reported as 30200 ng·h/mL. The Cmax at 5 days [1, 6] was 7790 ng/mL, the AUC(0-t) [1, 6] was 44200 ng·h/mL and the AUC [1, 6] was 77400 ng·h/mL. The Cmax ([1]; female, golden Syrian, hamster, plasma, hamsters, oral 25 mg/kg qd, 5 days, read-out: Cmax (Day 1)) was 4560 ng/mL, the AUC(0-t) ([1]; female, golden Syrian, hamster, plasma, hamsters, oral 50 mg/kg, single dose on day 1 only) was 145000 ng·h/mL and the Cmax ([1]; female, golden Syrian, hamster, plasma, hamsters, oral 50 mg/kg, single dose on day 1 only, read-out: Cmax (Day 1)) was 13200 ng/mL. For the same molecule, the Tmax ([1]; female, golden Syrian, plasma, Hamster, oral 12.5 mg/kg) was 2.7 h, the half-life ([1]; female, golden Syrian, plasma, Hamster, oral 12.5 mg/kg, read-out: Apparent t1/2 (converted)) was 2.6 h and the Cmax ([1]; female, golden Syrian, plasma, Hamster, oral 12.5 mg/kg, read-out: Cmax) was 2870 ng/mL. For the same molecule, the AUC(0-inf) ([1]; female, golden Syrian, plasma, Hamster, oral 12.5 mg/kg, read-out: Plasma AUC0-∞) was 21200 ng·h/mL, the “Cmax (Day 1)” value ([1]; hamsters, oral 12.5 mg/kg qd, 5 days) was 2870 ng/mL and the IC50 ([2]; CYP2C9, read-out: Direct inhibition IC50) was 14900 nM. It also gave an IC50 ([2]; without NADPH preincubation, read-out: Time-dependent inhibition IC50) of 13800 nM, a Cmax [3, 7] of 4210 ng/mL and a Tmax [3, 7] of 4 h. The bioavailability [3, 7] was 93%, the half-life ([3]; male, Sprague Dawley, rat, plasma, iv, 3 mg/kg, Rat, intravenous 3.0 mg/kg, Monash University, read-out: Apparent t1/2 (converted)) was 7.9 h and the AUC(0-inf) ([3]; male, Sprague Dawley, rat, plasma, iv, 3 mg/kg, Rat, intravenous 3.0 mg/kg, Monash University, read-out: Plasma AUC0-inf) was 23600 ng·h/mL. The clearance ([3]; male, Sprague Dawley, rat, plasma, iv, 3 mg/kg, Rat, intravenous 3.0 mg/kg, Monash University, read-out: Plasma CL) was 2.12 mL/min/kg, the Vd ([3]; male, Sprague Dawley, rat, plasma, iv, 3 mg/kg, Rat, intravenous 3.0 mg/kg, Monash University) was 1.4 L/kg and the half-life ([3]; male, Sprague Dawley, rat, plasma, iv, 3 mg/kg, Rat, intravenous 3.0 mg/kg, WuXi AppTec, read-out: Apparent t1/2 (converted)) was 5.3 h. The AUC(0-inf) ([3]; male, Sprague Dawley, rat, plasma, iv, 3 mg/kg, Rat, intravenous 3.0 mg/kg, WuXi AppTec, read-out: Plasma AUC0-inf) was 18500 ng·h/mL, the clearance ([3]; male, Sprague Dawley, rat, plasma, iv, 3 mg/kg, Rat, intravenous 3.0 mg/kg, WuXi AppTec, read-out: Plasma CL) was 2.95 mL/min/kg and the Vd ([3]; male, Sprague Dawley, rat, plasma, iv, 3 mg/kg, Rat, intravenous 3.0 mg/kg, WuXi AppTec) was 1.3 L/kg. The clearance ([3]; male, Sprague Dawley, rat, plasma, iv, 3 mg/kg, Rat, read-out: Measured in vivo CLplasma) was 2.5 mL/min/kg, the half-life ([3]; male, Sprague Dawley, rat, plasma, po, 10 mg/kg, Rat, oral 10 mg/kg, read-out: Apparent t1/2 (converted)) was 7 h and the AUC(0-inf) ([3]; male, Sprague Dawley, rat, plasma, po, 10 mg/kg, Rat, oral 10 mg/kg, read-out: Plasma AUC0-∞) was 57700 ng·h/mL. It also gave an AUC(0-inf) ([3]; male, Sprague Dawley, rat, plasma, po, 50 mg/kg, rats, single oral 50 mg/kg, read-out: AUC0-∞) of 292000 ng·h/mL, a half-life ([3]; male, Sprague Dawley, rat, plasma, po, 50 mg/kg, rats, single oral 50 mg/kg, read-out: T1/2 (converted)) of 9.05 h and a Cmax [3, 8] of 14200 ng/mL. The Tmax [3, 8] was 5.7 h, the Cmax [3, 9] was 20900 ng/mL and the Tmax [3, 9] was 17 h. For the same molecule, the Cmax [3, 10] was 30900 ng/mL, the Tmax [3, 10] was 27 h and the “parent compound excreted unchanged in urine” value ([3]; rats, intravenous) was < 1%. For the same molecule, the “AUC0-24 (reported in AUC0-∞ line)” value ([3]; rats, single oral 100 mg/kg) was 430000 ng·h/mL, the “AUC0-24 (reported in AUC0-∞ line)” value ([3]; rats, single oral 300 mg/kg) was 562000 ng·h/mL and the EC50 [4, 11] was 50 nM. The EC90 [4, 11] was 140 nM, the EC50 ([4]; L. donovani MHOM/ET/67/HU3) was 90 nM and the EC90 ([4]; L. donovani MHOM/ET/67/HU3) was 2000 nM. For the same molecule, the EC50 [4, 12] was 80 nM, the EC90 [4, 12] was 280 nM and the EC50 ([4]; L. donovani MHOM/IN/80/DD8) was 170 nM. It also gave an EC90 ([4]; L. donovani MHOM/IN/80/DD8) of 490 nM, an EC50 [4, 13] of 40 nM and an EC90 [4, 13] of 120 nM.
